Primed or numbered codes have the meaning given here. No end group written: not given here. C20 = lipophilic group with a 20-carbon chain; PEG27′ = polyethylene glycol, 27 units; cysteamide = C-terminal cysteamide; C16 = N-terminal C16 lipid; C18 = N-terminal C18 lipid; C18″ = C18 lipid
Key:
[1] = tested on: LacZ gene (bacterial galactosidase) in 9L/LacZ cells; test: In vitro assay for LacZ gene expression knockdown in 9L cells
Experimental: 9L/LacZ is a rat gliosarcoma cell line stably expressing the LacZ gene that encodes bacterial galactosidase. LacZ gene knockdown measurements can be used as a primary activity-based in vitro assay for interfering RNA delivery formulations.
For LacZ gene knockdown measurements, 9L/LacZ cells were transfected with an RNAi formulation, and a β-galactosidase assay was performed on cells harvested at day 3 post transfection. An additional assay was performed to quantify protein concentration.
9L/LacZ cells were plated at 8000 cells/well (96-well) and incubated overnight in medium. Confluency was about 15-20% at the time of transfection. Transfection complex was prepared by adding an interfering RNA to OptiMEM™ medium and vortexing, separately adding a delivery formulation to OptiMEM™ medium and vortexing, and finally mixing the interfering RNA in medium with the delivery formulation in medium to make the transfection complex. The medium for incubated cells was replaced with fresh no-serum media (OptiMEM™ without serum) and transfection complex was added to each well. Cells were incubated 5 hrs, then after the addition of 100 microliters complete medium (DMEM plus 10% fetal bovine serum) were incubated overnight at 37° C. and 5% CO2. The next day, 24 hours after transfection, the medium was changed to fresh complete medium and the cells were incubated another 48 hrs at 37° C. and 5% CO2.
For LacZ gene knockdown, the harvested 9L/LacZ cells were washed in PBS, lysed in M-PER™ Reagent (Pierce), and incubated at room temperature for 15 minutes. Lysate was taken from each well for protein assay with a Micro BCA kit (Pierce, Thermo Fisher Scientific) and β-gal assay with All-in-One™ β-Galactosidase Assay Reagent (Pierce).

[2] = tested on: Cyclophilin B (PPIB) gene expression in A549 cells; test: In vitro assay for PPIB gene expression knockdown in A549 cells; type: cell-based, human; details: for % KD (vs QNeg) A549/PPIB: A549 cells, PPIB mRNA by RT-PCR 24 hours after transfection; for knockdown in the A549/PPIB assay: as compared to both Qneg and vehicle (data for vehicle not shown)
Experimental: Cyclophilin B (PPIB) gene expression knockdown was measured in A549 human alveolar basal epithelial cells. For PPIB gene knockdown measurements, A549 cells were transfected with an interfering RNA formulation, total RNA prepared 24 hours after transfection, and PPIB mRNA assayed by RT-PCR. QRT-PCR of 36B4 (acidic ribosomal phosphoprotein PO) mRNA expression was performed for normalization.
Confluency was about 50% at the time of transfection.
For PPIB gene knockdown cells were lysed and RNA prepared (Invisorb RNA Cell HTS 96-Kit/C, Invitek, Berlin, or RNeasy 96 Kit, Qiagen). Quantitative RT-PCR was performed using One-Step qRT-PCR kit (Invitrogen) on a DNA Engine Opticon2 thermal cycler (BioRad).

[3] = N:P ratio 2, β-galactosidase assay day 3 post transfection
[4] = N:P ratio 4, β-galactosidase assay day 3 post transfection

(C18)-HHHHHKHHHKKKHKHKKK-cysteamide (C18-HHHHHKHHHKKKHKHKKK-cysteamide) [lipopeptide with C18 lipophilic group]
% KD (vs QNeg) L/9lacZ [1, 3]: −11.3%
% KD (vs QNeg) L/9lacZ [1, 4]: −19.4%
% KD (vs QNeg) A549/PPIB ([2]; N:P ratio 2): 25.5%
% KD (vs QNeg) A549/PPIB ([2]; N:P ratio 4): 21.6%
knockdown in the A549/PPIB assay [2]: significant knockdown

(C16)-HHHHHKHHHKKKHKHKKK-Cysteamide (C16-HHHHHKHHHKKKHKHKKK-cysteamide) [lipopeptide with C16 lipophilic group]
% KD (vs QNeg) L/9lacZ [1, 3]: 12.0%
% KD (vs QNeg) L/9lacZ [1, 4]: 12.4%
% KD (vs QNeg) A549/PPIB ([2]; N:P ratio 2): 14.7%
% KD (vs QNeg) A549/PPIB ([2]; N:P ratio 4): −19.8%

(C18)-HHHHRRRRRRRR-Cysteamide (C18-HHHHRRRRRRRR-cysteamide) [lipopeptide; (CX) is the number of carbons in the lipophilic group]
% KD (vs QNeg) L/9lacZ [1, 3]: −0.8%
% KD (vs QNeg) A549/PPIB ([2]; N:P ratio 2): 15.3%

Ac-LIRLWSHLIHIWFQNRRLKWKKK-amide (Ac-LIRLWSHLIHIWFQNRRLKWKKK-NH2) [acetylated peptide amide]
% KD (vs QNeg) L/9lacZ [1, 3]: −19.9%
% KD (vs QNeg) L/9lacZ [1, 4]: −4.5%
% KD (vs QNeg) A549/PPIB ([2]; N:P ratio 2): 8.7%
% KD (vs QNeg) A549/PPIB ([2]; N:P ratio 4): −28.8%

Ac-GALFLGFLGAAGSTMGAWSQPKSKRKV-amide (Ac-GALFLGFLGAAGSTMGAWSQPKSKRKV-NH2) [acetylated peptide amide]
% KD (vs QNeg) L/9lacZ [1, 3]: −0.4%
% KD (vs QNeg) L/9lacZ [1, 4]: −1.6%
% KD (vs QNeg) A549/PPIB ([2]; N:P ratio 2): −8.1%
% KD (vs QNeg) A549/PPIB ([2]; N:P ratio 4): −3.7%

Ac-GALFLAFLAAALSLMGLWSQPKSKRKV-Cysteamide (Ac-GALFLAFLAAALSLMGLWSQPKSKRKV-cysteamide) [acetylated peptide cysteamide]
% KD (vs QNeg) L/9lacZ [1, 3]: 29.5%
% KD (vs QNeg) L/9lacZ [1, 4]: −9.3%
% KD (vs QNeg) A549/PPIB ([2]; N:P ratio 2): 15.5%
% KD (vs QNeg) A549/PPIB ([2]; N:P ratio 4): 16.0%

Ac-GALFLAFLAAALSLMGLWSQPKKKRKV-Cysteamide (Ac-GALFLAFLAAALSLMGLWSQPKKKRKV-cysteamide) [acetylated peptide cysteamide]
% KD (vs QNeg) L/9lacZ [1, 3]: 29.1%
% KD (vs QNeg) A549/PPIB ([2]; N:P ratio 2): 20.5%

(C18)-PEG27-HHHHHHHHRRRRRRRR-amide ({C18″-PEG27′}-HHHHHHHHRRRRRRRR-NH2) [lipopeptide with C18 lipophilic group and PEG27]
% KD (vs QNeg) L/9lacZ [1, 3]: 9.2%
% KD (vs QNeg) L/9lacZ [1, 4]: −16.1%
% KD (vs QNeg) A549/PPIB ([2]; N:P ratio 2): 30.6%
% KD (vs QNeg) A549/PPIB ([2]; N:P ratio 4): 7.4%

(C20)-(H)8(R)8(H)8K-NH-(C20) (C20-HHHHHHHHRRRRRRRRHHHHHHHHK(C20)) [lipopeptide with two 20 carbon lipophilic groups]
% KD (vs QNeg) L/9lacZ [1, 3]: 60.1%
% KD (vs QNeg) L/9lacZ [1, 4]: 57.5%
% KD (vs QNeg) A549/PPIB ([2]; N:P ratio 2): 29.7%
% KD (vs QNeg) A549/PPIB ([2]; N:P ratio 4): 65.8%
knockdown in the A549/PPIB assay [2]: significant knockdown
